From patent US10899788B2, “Cyclic phosphate substituted nucleoside compounds and methods of use thereof for the treatment of viral diseases” (MERCK SHARP & DOHME CORP., priority 2016, dated 2021)

Tests used:
[1] = system: HCV replicon cells (1b-Con1); assay: Replicon activity assay (cell-based anti-HCV activity); settings: Hepatitis C virus, 72 h, three days post-dosing, replicon RNA level by real-time RT-PCR, read-out: EC50 (1b) Range
Method: (§1) To measure cell-based anti-HCV activity of the compounds of the present invention, replicon cells (1b-Con1) are seeded at 5000 cells/well in 96-well plates one day prior to treatment with a compound of the invention. Various concentrations of a test compound of the invention in DMSO are then added to the replicon cells, with the final concentration of DMSO at 0.5% and fetal bovine serum at 10% in the assay media. Cells are harvested three days post-dosing, and the replicon RNA level is determined using real-time RT-PCR (Taqman assay) with GAPDH RNA as endogenous control. EC50 values are calculated from experiments with 10 serial twofold dilutions of the inhibitor in triplicate. To measure cytotoxicity in replicon cells of an inhibitor, an MTS assay is performed according to the manufacturer's protocol for CellTiter 96 Aqueous One Solution Cell Proliferation Assay (Promega, Cat #G3580) three days post dosing on cells treated identically as in replicon activity assays. […] Cytotoxicity in other types of cells may be measured using the same MTS protocol.
(§2) Data were obtained using this method for selected compounds of the present invention, and are set forth below in Table 2.

[2] = Cytotoxicity assay in replicon cells (MTS); type: cell-based; settings: HCV replicon cells (1b-Con1), three days post dosing, head prints EDU, method MTS, read-out: CC50 (EDU) Range
Method: as §1, §2

| Structure (SMILES) | EC50 [1] [µM] | CC50 at 3 days [2] [µM] |
| --- | --- | --- |
| C#C[C@]1(C)[C@@H]2OP(=O)(OCCCC(=O)OC3CCCC3)OC[C@H]2O[C@H]1n1ccc(=O)[nH]c1=O (some centres unmarked) [7A or 7B] | ≤ 0.25 | – |
| CCOC(=O)CCCCOP1(=O)OC[C@H]2O[C@@H](n3ccc(=O)[nH]c3=O)[C@](C)(N)[C@@H]2O1 (some centres unmarked) [21A or 21B] | > 10 | > 50 |
| CC(C)OC(=O)CCCOP1(=O)OC[C@H]2O[C@@H](n3ccc(=O)[nH]c3=O)[C@](C)(C#N)[C@@H]2O1 (some centres unmarked) [Compound 1A] | 1 to 10 | > 50 |
| CC(C)OC(=O)CCCO[P@]1(=O)OC[C@H]2O[C@@H](n3ccc(=O)[nH]c3=O)[C@](C)(C#N)[C@@H]2O1 [Compound 1B] | 0.25 to 1 | > 50 |
| CCOc1nc(N)nc2c1ncn2[C@@H]1O[C@@H]2CO[P@](=O)(OCCCC(=O)OC(C)C)O[C@H]2[C@@]1(C)N [Compound 3A] | > 10 | > 50 |
| CCOc1nc(N)nc2c1ncn2[C@@H]1O[C@@H]2CO[P@@](=O)(OCCCC(=O)OC(C)C)O[C@H]2[C@@]1(C)N [Compound 3B] | 1 to 10 | > 50 |
| CCCCOC(=O)CCCO[P@@]1(=O)OC[C@H]2O[C@@H](n3ccc(=O)[nH]c3=O)[C@](C)(N)[C@@H]2O1 [Compound 4A] | > 10 | > 50 |
| CCCCOC(=O)CCCO[P@]1(=O)OC[C@H]2O[C@@H](n3ccc(=O)[nH]c3=O)[C@](C)(N)[C@@H]2O1 [Compound 4B] | 1 to 10 | > 50 |
| C[C@@]1(N)[C@@H]2O[P@@](=O)(OCCCC(=O)OC3CCCC3)OC[C@H]2O[C@H]1n1ccc(=O)[nH]c1=O [Compound 5A] | > 10 | > 50 |
| C[C@@]1(N)[C@@H]2O[P@](=O)(OCCCC(=O)OC3CCCC3)OC[C@H]2O[C@H]1n1ccc(=O)[nH]c1=O [Compound 5B] | > 10 | > 50 |
| C[C@@]1(Cl)[C@@H]2O[P@@](=O)(OCCCC(=O)OC3CCCC3)OC[C@H]2O[C@H]1n1ccc(N)nc1=O [Compound 6A] | > 10 | > 50 |
| C[C@@]1(Cl)[C@@H]2O[P@](=O)(OCCCC(=O)OC3CCCC3)OC[C@H]2O[C@H]1n1ccc(N)nc1=O [Compound 6B] | ≤ 0.25 | > 50 |
| CC(C)OC(=O)CCCO[P@@]1(=O)OC[C@H]2O[C@@H](n3ccc(N)nc3=O)[C@](C)(Cl)[C@@H]2O1 [Compound 8A] | 1 to 10 | > 50 |
| CC(C)OC(=O)CCCO[P@]1(=O)OC[C@H]2O[C@@H](n3ccc(N)nc3=O)[C@](C)(Cl)[C@@H]2O1 [Compound 8B] | 0.25 to 1 | > 50 |
| CCOc1nc(N)nc2c1ncn2[C@@H]1O[C@@H]2CO[P@](=O)(OCCCC(=O)OC(C)C)O[C@H]2[C@@]1(C)Cl [Compound 9A] | > 10 | > 50 |
| CCOc1nc(N)nc2c1ncn2[C@@H]1O[C@@H]2CO[P@@](=O)(OCCCC(=O)OC(C)C)O[C@H]2[C@@]1(C)Cl [Compound 9B] | ≤ 0.25 | > 50 |
| CC(C)OC(=O)CCCO[P@@]1(=O)OC[C@H]2O[C@@H](n3ccc(N)nc3=O)[C@](C)(N)[C@@H]2O1 [Compound 10A] | > 10 | > 50 |
| CC(C)OC(=O)CCCO[P@]1(=O)OC[C@H]2O[C@@H](n3ccc(N)nc3=O)[C@](C)(N)[C@@H]2O1 [Compound 10B] | > 10 | > 50 |
| C#C[C@]1(C)[C@@H]2O[P@@](=O)(OCCCC(=O)OC(C)C)OC[C@H]2O[C@H]1n1ccc(=O)[nH]c1=O [Compound 11A] | 1 to 10 | > 50 |
| C#C[C@]1(C)[C@@H]2O[P@](=O)(OCCCC(=O)OC(C)C)OC[C@H]2O[C@H]1n1ccc(=O)[nH]c1=O [Compound 11B] | 0.25 to 1 | > 50 |
| CC(C)OC(=O)CCCO[P@@]1(=O)OC[C@H]2O[C@@H](n3ccc(=O)[nH]c3=O)[C@](C)(N)[C@@H]2O1 [Compound 12A] | > 10 | > 50 |
| CC(C)OC(=O)CCCO[P@]1(=O)OC[C@H]2O[C@@H](n3ccc(=O)[nH]c3=O)[C@](C)(N)[C@@H]2O1 [Compound 12B] | > 10 | > 50 |

| Structure (SMILES) | EC50 [1] [µM] | CC50 at 3 days [2] [µM] |
| --- | --- | --- |
| C#C[C@@]1(O)[C@@H]2O[P@@](=O)(OCCCC(=O)OC(C)C)OC[C@H]2O[C@H]1n1ccc(=O)[nH]c1=O [Compound 13A] | > 10 | > 50 |
| C#C[C@@]1(O)[C@@H]2O[P@](=O)(OCCCC(=O)OC(C)C)OC[C@H]2O[C@H]1n1ccc(=O)[nH]c1=O [Compound 13B] | 1 to 10 | > 50 |
| CC(C)OC(=O)CCCCO[P@@]1(=O)OC[C@H]2O[C@@H](n3ccc(=O)[nH]c3=O)[C@](C)(N)[C@@H]2O1 [Compound 14A] | > 10 | > 50 |
| CC(C)OC(=O)CCCCO[P@]1(=O)OC[C@H]2O[C@@H](n3ccc(=O)[nH]c3=O)[C@](C)(N)[C@@H]2O1 [Compound 14B] | > 10 | > 50 |
| C#C[C@]1(C)[C@@H]2O[P@@](=O)(OCCCCC(=O)OC(C)C)OC[C@H]2O[C@H]1n1ccc(=O)[nH]c1=O [Compound 15A] | > 10 | > 50 |
| C#C[C@]1(C)[C@@H]2O[P@](=O)(OCCCCC(=O)OC(C)C)OC[C@H]2O[C@H]1n1ccc(=O)[nH]c1=O [Compound 15B] | > 10 | > 50 |
| C#C[C@]1(C)[C@@H]2O[P@@](=O)(OCCCCC(=O)OC3CCCC3)OC[C@H]2O[C@H]1n1ccc(=O)[nH]c1=O [Compound 16A] | > 10 | > 50 |
| C#C[C@]1(C)[C@@H]2O[P@](=O)(OCCCCC(=O)OC3CCCC3)OC[C@H]2O[C@H]1n1ccc(=O)[nH]c1=O [Compound 16B] | 1 to 10 | > 50 |
| C[C@@]1(N)[C@@H]2O[P@@](=O)(OCCCCC(=O)OC3CCCC3)OC[C@H]2O[C@H]1n1ccc(=O)[nH]c1=O [Compound 17A] | > 10 | > 50 |
| C[C@@]1(N)[C@@H]2O[P@](=O)(OCCCCC(=O)OC3CCCC3)OC[C@H]2O[C@H]1n1ccc(=O)[nH]c1=O [Compound 17B] | 1 to 10 | > 50 |
| CC(C)OC(=O)CCCCO[P@@]1(=O)OC[C@H]2O[C@@H](n3ccc(=O)[nH]c3=O)[C@](C)(Cl)[C@@H]2O1 [Compound 18A] | 1 to 10 | > 50 |
| CC(C)OC(=O)CCCCO[P@]1(=O)OC[C@H]2O[C@@H](n3ccc(=O)[nH]c3=O)[C@](C)(Cl)[C@@H]2O1 [Compound 18B] | 1 to 10 | > 50 |
| C[C@@]1(Cl)[C@@H]2O[P@@](=O)(OCCCCC(=O)OC3CCCC3)OC[C@H]2O[C@H]1n1ccc(=O)[nH]c1=O [Compound 19A] | 1 to 10 | > 50 |
| C[C@@]1(Cl)[C@@H]2O[P@](=O)(OCCCCC(=O)OC3CCCC3)OC[C@H]2O[C@H]1n1ccc(=O)[nH]c1=O [Compound 19B] | 0.25 to 1 | > 50 |
| C#C[C@]1(C)[C@@H]2O[P@@](=O)(OCCCCC(=O)OCC)OC[C@H]2O[C@H]1n1ccc(=O)[nH]c1=O [Compound 20A] | > 10 | > 50 |
| C#C[C@]1(C)[C@@H]2O[P@](=O)(OCCCCC(=O)OCC)OC[C@H]2O[C@H]1n1ccc(=O)[nH]c1=O [Compound 20B] | > 10 | > 50 |
| C#C[C@]1(C)[C@@H]2O[P@@](=O)(OCCCCC(=O)OC)OC[C@H]2O[C@H]1n1ccc(=O)[nH]c1=O [Compound 22A] | > 10 | > 50 |
| C#C[C@]1(C)[C@@H]2O[P@](=O)(OCCCCC(=O)OC)OC[C@H]2O[C@H]1n1ccc(=O)[nH]c1=O [Compound 22B] | > 10 | > 50 |
| CC(C)OC(=O)CCCCCO[P@@]1(=O)OC[C@H]2O[C@@H](n3ccc(=O)[nH]c3=O)[C@](C)(N)[C@@H]2O1 [Compound 25A] | > 10 | – |
| CC(C)OC(=O)CCCCCO[P@]1(=O)OC[C@H]2O[C@@H](n3ccc(=O)[nH]c3=O)[C@](C)(N)[C@@H]2O1 [Compound 25B] | > 10 | – |
| CC(C)OC(=O)CCO[P@@]1(=O)OC[C@H]2O[C@@H](n3ccc(=O)[nH]c3=O)[C@](C)(Cl)[C@@H]2O1 [Compound 27A] | 1 to 10 | – |
| CC(C)OC(=O)CCO[P@]1(=O)OC[C@H]2O[C@@H](n3ccc(=O)[nH]c3=O)[C@](C)(Cl)[C@@H]2O1 [Compound 27B] | 1 to 10 | – |
